In brackets after ≈: the same amount, converted by molar mass.
Assays:
Apis mellifera = conditions: acute; duration: 48 hours; dermal; mortality
Daphnia magna = conditions: chronic/long-term; duration: 21 days; reproduction
Colinus virginianus = conditions: acute; oral; mortality
Tagia sp. = conditions: acute; duration: 14 days; mortality
Bibionidae = conditions: chronic/long-term; duration: 25 days; development

CCCN(CCC)C(=O)SCc1ccccc1 [Prosulfocarb]
LC50 (Oncorhynchus mykiss; acute, duration: 96 hours, mortality): 0.84 µg/mL (≈ 3.34 µM)
NOEC (Oncorhynchus mykiss; chronic/long-term, duration: 21 days, other): 0.31 mg/L
LD50 (Apis mellifera): > 80 µg/piece
NOEC (Daphnia magna): 0.045 mg/L
NOEL (Anas platyrhynchos; reproductive): 131 mg/kg-day
LD50 (Anas platyrhynchos; short-term, oral, feed, mortality): > 1510 mg/kg-day
LD50 (Colinus virginianus): > 2250 mg/kg-day
LC50 (Tagia sp.): 144 mg/kg
LD50 (Rattus norvegicus; acute, oral, mortality): 1820 mg/kg-day
NOAEL (Rattus norvegicus; chronic, duration: 2 years, oral, body weight): 0.5 mg/kg-day
NOAEL (Rattus norvegicus; reproduction developmental, body weight): 0.5 mg/kg-day
NOAEL (Rattus norvegicus; reproduction developmental, clinical signs): 10 mg/kg-day
NOAEL (Rattus norvegicus; reproduction developmental, reproduction): > 50 mg/kg-day
NOAEL (Rattus norvegicus; subchronic, duration: 90 days, oral, body weight): 1 mg/kg-day
NOEC (Bibionidae): 1.25 mg/L
